According to ChEMBL document CHEMBL5365453, “Synthesis and biological evaluation of xanthine derivatives with phenacyl group as tryptophan hydroxylase 1 (TPH1) inhibitors for obesity and fatty liver disease” (Bioorg Med Chem Lett, 2023):
Activity calls are given as the source filed them. The rule behind the calls is not given here.

Legend:
[1] = target: T1, Tryptophan 5-hydroxylase 1 (Homo sapiens) (UniProt P17752); experiment: Inhibition of TPH1 ( unknown origin ) at 1 uM relative to control
T1 sequence (whole entry): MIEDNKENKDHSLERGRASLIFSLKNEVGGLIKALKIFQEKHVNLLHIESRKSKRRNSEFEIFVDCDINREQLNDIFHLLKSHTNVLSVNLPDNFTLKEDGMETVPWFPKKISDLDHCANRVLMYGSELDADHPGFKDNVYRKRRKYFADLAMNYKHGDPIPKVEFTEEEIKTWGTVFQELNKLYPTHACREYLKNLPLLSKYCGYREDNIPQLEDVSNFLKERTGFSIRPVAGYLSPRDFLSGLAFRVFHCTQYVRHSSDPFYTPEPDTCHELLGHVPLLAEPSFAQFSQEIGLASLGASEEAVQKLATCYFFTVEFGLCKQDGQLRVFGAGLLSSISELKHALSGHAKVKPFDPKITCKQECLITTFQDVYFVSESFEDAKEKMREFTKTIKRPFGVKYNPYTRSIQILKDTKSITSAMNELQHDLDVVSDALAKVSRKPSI

[2] = Stability in mouse liver microsomes assessed as compound remaining measured after 30 mins; assay type: ADME, Microsome; conditions: read-out: Stability
[3] = target: T2, Tryptophan 5-hydroxylase 1 (Homo sapiens, UniProt P17752); experiment: Inhibition of TPH1 ( unknown origin )
T2 sequence (P17752 whole entry): T1 sequence (whole entry)

[4] = Stability in human liver microsomes assessed as compound remaining measured after 30 mins; assay type: ADME, Microsome; conditions: read-out: Stability
[5] = target: T3, Tryptophan 5-hydroxylase 1 (Mus musculus) (UniProt P17532); experiment: Inhibition of TPH1 in mouse 3T3-L1 cells assessed as suppression of insulin-induced adipocyte differentiation by measuring reduction in lipid droplet accumulation at 1 to 2 uM measured on day 7 post-adipogenesis induction by oil red O staining based spectrophotometry; assay type: cell-based; conditions: dose 1-2 µM, time 7.0 day
T3 sequence (whole entry): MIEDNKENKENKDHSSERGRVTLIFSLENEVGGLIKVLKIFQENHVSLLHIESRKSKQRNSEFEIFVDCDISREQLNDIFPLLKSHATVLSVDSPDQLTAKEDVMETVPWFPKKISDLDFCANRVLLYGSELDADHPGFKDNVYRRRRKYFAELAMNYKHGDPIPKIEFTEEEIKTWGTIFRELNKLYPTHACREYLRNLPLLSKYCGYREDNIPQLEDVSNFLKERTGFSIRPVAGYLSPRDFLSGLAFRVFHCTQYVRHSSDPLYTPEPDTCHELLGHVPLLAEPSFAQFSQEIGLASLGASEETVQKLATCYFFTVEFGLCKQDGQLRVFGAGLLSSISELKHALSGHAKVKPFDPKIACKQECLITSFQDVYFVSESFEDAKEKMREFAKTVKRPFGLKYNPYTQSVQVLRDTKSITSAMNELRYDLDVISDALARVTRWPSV

[6] = target: T3, Tryptophan 5-hydroxylase 1 (Mus musculus); experiment: Inhibition of TPH1 in mouse 3T3-L1 cells assessed as suppression of insulin-induced adipocyte differentiation by measuring reduction in lipid droplet accumulation at 1 to 2 uM measured on day 7 post-adipogenesis induction by oil red O staining based phase-contrast light microscopy; assay type: cell-based; conditions: dose 1-2 µM, time 7.0 day

Structure (SMILES)	inhibition [1] [%]	also measured
CCn1c(=O)n(Cc2ccccc2)c(=O)c2c1nc(Cc1cn3ccsc3n1)n2Cc1ccccc1	6.2	–
CCn1c(=O)[nH]c(=O)c2c1nc(Cc1ccccc1)n2Cc1ccccc1	0	–
CCn1c(=O)[nH]c(=O)c2c1nc(Cc1cn3ccsc3n1)n2CC(=O)c1ccccc1OC	0.3	–
CCn1c(=O)[nH]c(=O)c2c1nc(Cn1cnc3ccccc31)n2Cc1ccccc1	0	–
CCn1c(=O)[nH]c(=O)c2[nH]c(Cc3cn4ccsc4n3)nc21	10.2	–
CCn1c(=O)[nH]c(=O)c2c1nc(Cc1cn3ccsc3n1)n2Cc1ccccc1	48.6	IC50 [3]: 1160 nM
CCn1c(=O)[nH]c(=O)c2c1nc(Cc1cn3ccsc3n1)n2C/C(=N/O)c1ccc(OC)cc1	25.5	–
CCn1c(=O)[nH]c(=O)c2c1nc(Cc1cn3ccsc3n1)n2CC(=O)c1ccc(-c2ccccc2)cc1	32.6	–
CCn1c(=O)[nH]c(=O)c2c1nc(C)n2Cc1ccccc1	0	–
CCn1c(=O)[nH]c(=O)c2c1nc(Cn1ccnc1)n2Cc1ccccc1	0	–
CCn1c(=O)[nH]c(=O)c2c1nc(Cc1cn3ccsc3n1)n2CC(O)c1ccc(Cl)cc1 (centres undefined)	0	–
CCn1c(=O)[nH]c(=O)c2c1nc(Cc1cn3ccsc3n1)n2CC(=O)Nc1ccc(OC)cc1	4.1	–

Continued, in another order:

inhibition [1] [%]	Structure (SMILES)	also measured
87.8	CCn1c(=O)[nH]c(=O)c2c1nc(Cc1cn3ccsc3n1)n2CC(=O)c1ccc(N)cc1	remaining at 0.5 h [2]: 80.8%; IC50 [3]: 168 nM; remaining at 0.5 h [4]: 95.3%
91.4	CCn1c(=O)[nH]c(=O)c2c1nc(Cc1cn3ccsc3n1)n2CC(=O)c1ccc(OC)cc1	remaining at 0.5 h [2]: 30%; IC50 [3]: 182 nM; remaining at 0.5 h [4]: 69%
39.4	CCn1c(=O)[nH]c(=O)c2c1nc(Cc1cn3ccsc3n1)n2CC(=O)c1ccccc1	–
47.2	CCn1c(=O)[nH]c(=O)c2c1nc(Cc1cn3ccsc3n1)n2CC(=O)c1ccc(Br)cc1	–
83	CCn1c(=O)[nH]c(=O)c2c1nc(Cc1cn3ccsc3n1)n2CC(=O)c1ccc(CO)cc1	remaining at 0.5 h [2]: 85.2%; IC50 [3]: 277 nM; remaining at 0.5 h [4]: 91.5%
80.8	CCn1c(=O)[nH]c(=O)c2c1nc(Cc1cn3ccsc3n1)n2CC(=O)c1ccc(OC(C)=O)cc1	–
87.9	CCn1c(=O)[nH]c(=O)c2c1nc(Cc1cn3ccsc3n1)n2CC(=O)c1ccc(N=[N+]=[N-])cc1	–
62.6	CCn1c(=O)[nH]c(=O)c2c1nc(Cc1cn3ccsc3n1)n2CC(=O)c1ccc(F)cc1	–
38.9	CCn1c(=O)[nH]c(=O)c2c1nc(Cc1cn3ccsc3n1)n2CC(=O)c1cccc(OC)c1	–
47.5	CCn1c(=O)[nH]c(=O)c2c1nc(Cc1cn3ccsc3n1)n2CC(=O)c1ccc(C(F)(F)F)cc1	–
66	CCn1c(=O)[nH]c(=O)c2c1nc(Cc1cn3ccsc3n1)n2CC(=O)c1ccc(Cl)cc1	–
94.3	CCn1c(=O)[nH]c(=O)c2c1nc(Cc1cn3ccsc3n1)n2CC(=O)c1ccc(O)cc1	remaining at 0.5 h [2]: 77.3%; inhibition [5]: Active; inhibition [6]: Active; IC50 [3]: 110 nM; remaining at 0.5 h [4]: 80.4%
